The values below come from patent publication US20250042941A1, “PEPTIDE HAVING PHYSIOLOGICAL ACTIVITY AND USE THEREOF” (CAREGEN CO., LTD., priority 2021, published 2025).

For one data set, the system named is TRAP. The following applies: RAW264.7; peptide 10, 30, 50, 100, 150 μg/ml with RANKL; 4 days; absorbance 405 nm; concentration-dependent; FIG. 10C.
Data set [1] has as its system human adipose-derived mesenchymal stem cells (AD-MSCs). Description: Differentiation of mesenchymal stem cells into chondrocytes and ECM production, alcian blue staining. The data set is classed as cell-based. The following applies: peptide 30, 50, 100, 150 μg/ml, day 15, FIG. 5. The procedure: Adipose-derived mesenchymal stem cells were treated with the peptide containing the amino acid sequence of SEQ ID NO: 1, and then the effect on chondrogenic differentiation of the stem cells and ECM production was confirmed.
After removing the medium on day 15, 60 μl of 3.7% formalin was added to the 96-well plate to be stained and fixed for 1 minute. After removing the 3.7% formalin, 70 μl of an alcian blue staining solution (50 ml of 3% acetic acid+0.5 g of 1% Asian blue 8GX, pH 2.5) was added, and incubation was performed at 37° C. for 24 hours. Thereafter, the staining solution was removed, washing with triple distilled water and drying were performed, and then observation was performed with a microscope.

The test system of another data set is COX2 protein. Nature of the data set: COX2 protein in macrophages induced by inflammation with TNFα (Western blot). The data set is classed as cell-based, mouse. The following applies: RAW264.7, peptide 100 and 150 μg/ml 1 hour, then 20 nM TNF-α 24 hours, FIG. 9. The procedure:
In addition to the results of Experimental Example 7, in order to further confirm the anti-inflammatory effect of the treatment with the peptide containing the amino acid sequence of SEQ ID NO: 1 of the present invention, mouse RAW264. 7 macrophage cell line was treated with TNFα to induce inflammation, and the expression level of COX2 protein, which is an inflammation-inducing marker, was confirmed.
To this end, mouse RAW264.7 cell line was distributed in a 6-well plate at a density of 2×10^5 cells/well and cultured in α-MEM medium containing 10% FBS for 24 hours. The medium was replaced with serum-free α-MEM medium (1% penicillin) and then fasted for 6 hours. […] After 1 hour, the cells were treated with 20 nM TNF-α and incubated for 24 hours. Thereafter, the cells were harvested, a cell lysate was prepared, and then Western blot was performed using antibodies against the COX2 protein (Cell Signaling Technology, USA).
(A western blot detects proteins with antibodies after separation by electrophoresis.)

In the next data set the test system is NFATc1 protein. Description: NFATc1 protein in RANKL-induced osteoclast differentiation (Western blot). Format: cell-based, mouse. The following applies: RAW264.7, peptide 50 and 100 μg/ml with RANKL, day 1 of induction, FIG. 11. The procedure: Mouse RAW264. […] After removing the medium on day 1 of induction, cells were harvested, a cell lysate was prepared, and Western blot was performed using antibodies (Millipore, USA) against NFATc1 protein.

Data set [2] deals with human C28/12 chondrocyte cell line. Description: ECM production in chondrocytes, alcian blue staining. Format: cell-based. The following applies: peptide 30, 50, 100, 150 μg/ml, day 6, FIG. 2. The protocol:
In order to confirm the cartilage regeneration effect of treatment with the peptide of the present invention containing the amino acid sequence of SEQ ID NO: 1, human-derived chondrocytes were treated with the peptide of SEQ ID NO: 1, and then it was confirmed whether there was an increase in formation of glycosaminoglycan, which is an ECM component.
After removing the medium on day 6, 60 μl of 3.7% formalin was added to the 96-well plate to be stained and fixed for 1 minute. After removing the 3.7% formalin, 70 μl of an alcian blue staining solution (50 ml of 3% acetic acid+0.5 g of 1% Asian blue 8GX, pH 2.5) was added, and incubation was performed at 37° C. for 24 hours. Thereafter, the staining solution was removed, washing with triple distilled water and drying were performed, and then observation was performed with a microscope.

The test system is the same in data set [3]. Nature of the data set: ECM gene expression in chondrocytes (RT-PCR). The data set is classed as cell-based. The following applies: peptide 50 and 100 μg/ml, day 9, mRNA, FIG. 3. The procedure:
Human-derived chondrocytes were treated with the peptide containing the amino acid sequence of SEQ ID NO: 1, and then it was confirmed whether there was an increase in mRNA expression of collagen type II (COL2A1), aggrecan (ACAN), and proteoglycan core protein (PCP), which are ECM components, and GAPDH gene, which is a control.
To this end, human C28/12 chondrocyte cell line was distributed in a 6-well plate at a density of 8.9×10^4 cells/well and cultured in DMEM medium (cat. 11995-065, Gibco) for 24 hours. […] After removing the medium on day 9, cells were harvested and RNA was isolated. After synthesizing cDNA using a cDNA synthesis kit (Intron, Korea), PCR was performed for collagen type II, ACAN, PCP, and GAPDH genes using PCR pre-mix (Intron, Korea).

For the next data set, the system named is SOX9 protein. Description: Expression of ECM regulator SOX9 in mesenchymal stem cells (Western blot). Format: cell-based, human. The following applies: AD-MSC, peptide 50 and 100 μg/ml, days 3, 7, 14, FIGS. 6A to 6C. The protocol: Adipose-derived mesenchymal stem cells were treated with the peptide containing the amino acid sequence of SEQ ID NO: 1, and then it was confirmed whether there was an increase in expression of SOX9 protein, which is an ECM regulator.
At this time, as a positive control (CM), a solution containing dexamethasone (100 nM)+ascorbic acid (50 μM)+proline (40 μM)+TGFβ1 (10 ng/ml)+1X ITS was used. After removing the medium on days 3, 7, and 14, cells were harvested, a cell lysate was prepared, and Western blot was performed using antibodies (Millipore, USA) against the SOX9 and SOX5 proteins.

In data set [4] the test system is mouse RAW264.7 macrophage cell line. Nature of the data set: Actin ring formation in osteoclasts induced by RANKL (immunofluorescence). The data set is classed as cell-based. The following applies: peptide 50 and 100 μg/ml with RANKL, 4 days, FIG. 12. The procedure: In addition to the results of Experimental Examples 9 and 10, in order to further confirm the effect of inhibiting osteoclast differentiation according to the treatment with the peptide containing the amino acid sequence of SEQ ID NO: 1 of the present invention, mouse RAW264. […] After removing the medium, the cells were washed three times with cooled PBS and fixed with 4% paraformaldehyde for 30 minutes. The cells were washed three times with cooled PBS for 5 minutes, and then the cells were permeabilized with 0.3% Triton X-100 in PBS for 30 minutes. The cells were washed three times with cooled PBS for 5 minutes, and the cells were blocked with filtered 3% BSA in PBS for 1 hour with stirring. Incubation was performed with primary antibodies (Rhodamin (Red) [Invitrogen™]) diluted to 1:100 with a blocking medium with stirring for 2 hours. The cells were blocked from light and washed three times with PBS for 15 minutes with stirring, DAPI mounting medium (VECTASHIELD® MOUNTING MEDIUM with DAPI) was added, and then each well was covered with a cover slip and observed with a microscope.

The subject of data set [5] is human C28/12 chondrocyte cell line. Description: ECM production in three-dimensional culture of chondrocytes (alginate beads, alcian blue or toluidine blue). Format: cell-based. The following applies: peptide 100 and 150 μg/ml, day 9, FIG. 4. The procedure:
Human-derived chondrocytes were treated with the peptide containing the amino acid sequence of SEQ ID NO: 1 in three-dimensional culture, and then it was confirmed whether there was an increase in the formation of glycosaminoglycan, which is an ECM component.
To this end, 3×10^6 cells of human C28/12 chondrocyte cell line were suspended in 1 ml of an alginate solution (1.25% alginate, 20 mM HEPES, 150 mM Nacl, pH 7.4), and the alginate solution containing the cells were added dropwise to a polymerization solution (100 mM CaCl2), 10 mM HEPES, pH 7.4), thereby preparing beads. The prepared beads were washed twice with DPBS, and then the beads were distributed in a conical tube containing DMEM medium (5% FBS). […] After removing the medium on day 9, 3.7% formaldehyde was added and fixed for 6 hours. Dehydration was performed using a tissue processor (EtOH 70%, 80%, 90%, 100% I, II, xylene I, II in this order for 30 minutes each), and a paraffin block was prepared by embedding. The paraffin block was sectioned on a glass slide to a thickness of […] and then completely dried for 24 hours or longer. The sections were hydrated (Xylene I, II, EtOH 100% I, II, 90%, 80%, 70% in this order for 3 minutes each) and washed three times by being immersed in running water for 10 seconds. […]

The test system of data set [6] is mouse RAW264.7 cell line. Nature of the data set: Cytotoxicity / cell proliferation, CCK-8 assay. Format: cell-based. The following applies: peptide 10, 30, 50, 100, 150 μg/ml, 3 days. The procedure:
The effect of the peptide of the present invention on cell proliferation was confirmed using CCK-8 assay. CCK-8 reagent is reduced by cellular dehydrogenase to produce a colored product, and the proliferation of cells may be confirmed through a difference in absorbance using this.
After removing the medium, CCK-8 solution (Dojindo, CCK-8 kit) was diluted 10 times in the culture medium and treated at 100 μl each. During incubation at 37° C., absorbance at a wavelength of 450 nm was measured using a microplate reader at 30-minute intervals.
In general terms: Formazan colour is commonly taken as a measure of viable cells.

A further data set has as its system human AD-MSC cells. Description: ECM gene expression in mesenchymal stem cells (RT-PCR). The data set is classed as cell-based. The following applies: peptide 50 and 100 μg/ml, days 3, 7, 11, FIGS. 7A to 7C. The protocol:
Adipose-derived mesenchymal stem cells were treated with the peptide containing the amino acid sequence of SEQ ID NO: 1, and then it was confirmed whether there was an increase in expression of cartilage oligomeric matrix protein (COMP), collagen type 11A (COL 11A), PCP, and ACAN (aggrecan) genes associated with the ECM production.
After removing the medium on days 3, 7, and 11, cells were harvested and RNA was isolated. After synthesizing cDNA using a cDNA synthesis kit (Intron, Korea), PCR was performed for COMP, COL 11A, PCP, ACAN, and GAPDH genes using PCR pre-mix (Intron, Korea).

The test system of data set [7] is mouse RAW264.7 macrophage cell line. Description: Inflammatory cytokine mRNA in macrophages induced by inflammation with TNFα (RT-PCR). Format: cell-based. The following applies: peptide 100 and 150 μg/ml 1 hour, then 20 nM TNF-α 24 hours, FIG. 8. The protocol:
In addition to the cartilage regenerative activity confirmed in Experimental Examples 1 to 6, in order to confirm the anti-inflammatory effect according to the treatment with the peptide containing the amino acid sequence of SEQ ID NO: 1 of the present invention, mouse RAW264.7 macrophage cell line was treated with TNF to induce inflammation, and the expression levels of TNFα and IL-18, which are inflammatory cytokines, and Cox2 gene, which is an inflammation-inducing marker, were confirmed. The cytokine TNFα was treated to induce inflammation. Since TNFα corresponds to a signal transduction protein related to an inflammatory response, IL-18 corresponds to a cytokine that promotes an inflammatory response, and Cox2 is an inflammation-related protein, a degree of the inflammatory response may be confirmed by measuring the expression levels of TNFα, Cox2, and […] genes. To this end, mouse RAW264.7 cell line was distributed in a 6-well plate at a density of 2×10^5 cells/well and cultured in α-MEM medium containing 10% FBS for 24 hours. The medium was replaced with serum-free α-MEM medium (1% penicillin) and then fasted for 6 hours. […] After 1 hour, the cells were treated with 20 nM TNF-α and incubated for 24 hours. Thereafter, the cells were harvested and RNA was isolated. […]

For data set [8], the system named is mouse RAW264.7 cell line. Description: Osteoclast differentiation induced by RANKL, TRAP staining. Format: cell-based. The following applies: peptide 10 to 150 μg/ml with RANKL, 4 days, FIG. 10A. The protocol:
After removing the medium, the cells were fixed for 30 seconds and washed twice with double distilled water. Staining was performed with 100 μl of a TRAP staining solution (acid phosphatase kit, Sigma aldrich) at 37° C. for 30 minutes. Thereafter, the staining solution was removed, washing with double distilled water three times and drying were performed, and then observation was performed with a microscope.

As for “ACDWGLWWLC (peptide having cartilage regeneration activity) [SEQ ID NO: 1]”, the “activity of TRAP (marker of osteoclasts)” value in the data set with TRAP is “inhibited the activity of TRAP”. For the same sequence, in data set [1], the “chondrogenic differentiation of adipose-derived mesenchymal stem cells” value is listed as “promoted the chondrogenic differentiation” and the “production of glycosaminoglycan (ECM component) in adipose-derived mesenchymal stem cells” value is “promoted”. Besides, the “increase in inflammatory proteins (COX2 protein)” value with COX2 protein is “inhibited the increase in inflammatory proteins”. In the data set with NFATc1 protein, the “production of NFATc1 protein” value is recorded as “inhibited the production of NFATc1 protein”. For the same sequence, the “ECM production (glycosaminoglycan formation) in chondrocytes” value in [2] was “promoted ECM production”. For the same sequence, in [3], the “expression of ACAN (aggrecan) gene” value is given as “promoted the expression”, the “expression of PCP (proteoglycan core protein) gene” value is “promoted the expression” and the “expression of collagen type II (COL2A1) gene” value was “promoted the expression”. The “production of SOX9 protein (ECM regulator)” value in the data set on SOX9 protein is given as “increased production of SOX9 protein”. In data set [4], the “formation of actin rings” value is “inhibited the formation of actin rings”. Besides, the “formation of glycosaminoglycan (ECM component) in three-dimensional culture of chondrocytes” value in [5] is given as “promoted the formation of glycosaminoglycan”. In addition, the “toxicity to mouse macrophages” value in the data set on mouse RAW264.7 cell line [6] (CCK-8, FIG. 10B) was “not toxic”. In addition, the “CCK-8 absorbance at 450 nm (cell proliferation) versus untreated” value in the data set with mouse RAW264.7 cell line [6] (FIG. 10B) is given as “the absorbance was higher”. In the data set on human AD-MSC cells, the “expression of ACAN gene” value is recorded as “promoted the expression”, the “expression of COL 11A gene” value is “promoted the expression”, the “expression of COMP gene” value is listed as “promoted the expression” and the “expression of PCP gene” value was “promoted the expression”. In addition, the “expression of inflammatory cytokine genes (TNFα, IL-1β, Cox2 mRNA)” value in data set [7] is “inhibited the expression of inflammatory cytokine genes”. The “differentiation into osteoclasts induced by RANKL” value in the data set on mouse RAW264.7 cell line [8] is listed as “inhibited the differentiation into osteoclasts”.
